Reference: paper PMC4279401 (Oncotarget, 2014)
Where “and” joins values, the source holds several entries; their conditions need not be identical. Equal entries are not always repeated. Entries after “also recorded” stand apart in the source; their conditions may differ. Where two headings read alike, the source gives them in different places.

Experiments:
[1] = system: A549; assay: Cell proliferation, MTT assay; assay type: cell-based, Human; details: in words
[2] = system: MDA-MB231 cells; assay: Apoptosis, Annexin V FACS; assay type: cell-based, Human
Protocol: (§1) For apoptosis and cell cycle analysis, 10^5 cells/well were incubated with increasing concentrations of a compound for 7 or 10 days. Apoptosis was determined using the FITC Annexin V Apoptosis Detection Kit I (BD Bioscience) according to the manufacturer's protocol. Cells for cell cycle analysis were fixed in cold 70% ethanol at 4°C and stained with Propidium iodide (Sigma-Aldrich) (20 μg/ml) and RNase A (10 μg/ml) for 30min. Cells were analyzed using a FACS Calibur (BD Biosciences/Applied Biosystems) and data were processed using the program Flowjo (version7.6.5).

[3] = system: MDA-MB231 cells; assay: Cell cycle analysis, propidium iodide FACS; assay type: cell-based, Human; details: MDA-MB231, in words
Protocol: as §1

[4] = system: MDA-MB231 cells; assay: CD44/CD24 flow cytometry; assay type: cell-based, Human; details: MDA-MB231, FACS, in words
Protocol: (§2) 5 × 10^4 cells/well were incubated with compounds for 14 days. The ALDH activity of cells was determined by using the ALDEFLUOR assay kit (StemCell Technologies) according to the manufacturer's instructions. Combinations of fluorochrome-conjugated monoclonal antibodies against human CD44-FITC and CD24-PE were obtained from BD Biosciences. Primary antibodies or the respective isotype controls (BD Biosciences) were added to the cell suspension, according to the manufacturer's recommendation, and incubated at 4°C for 20 min. Dead cells were eliminated using propidium iodide (Sigma). The labelled cells were analyzed on a FACS Calibur (BD Biosciences/Applied Biosystems).

[5] = system: MDA-MB231 cells; assay: ALDEFLUOR assay; assay type: cell-based, Human; details: in words
Protocol: as §2

[6] = system: MDA-MB231 cells; assay: Quantitative PCR of EMT genes; assay type: cell-based, Human; details: MDA-MB231, qPCR, dose-dependent, in words
Protocol: 10^4 cells/well were incubated with compounds for 14 days with media containing compounds replaced every 3-4 days. Total RNA was extracted from cells using RNeasy mini kit (Qiagen). 100-1000 ng of total RNA was reverse transcribed using iScript™ Reverse Transcription Supermix (Bio-Rad) according to the manufacturer's protocol. Quantitative real-time PCR was carried out using the RT^2 SYBR Green ROX™ qPCR Mastermix (Qiagen) according to the manufacturer's instructions. Measurements were performed in triplicate, using GAPDH or human 18S ribosomal RNA as a reference gene. The sequences of primers used are listed in the Supplementary Table. Real-time PCR was performed using the ABI Prism 7300 sequence detection system.

[7] = system: MDA-MB231; assay: Transwell cell migration assay; assay type: cell-based, Human; details: MDA-MB231, Transwell with and without Matrigel, in words
Protocol: 5 × 10^4 cells/well were incubated with compounds for 14 days. For transwell migration assays, 5× 10^4 cells were plated in the top chamber with the non-coated membrane (24-well insert; pore size, […]; BD Biosciences). For invasion assays, 5× 10^4 cells were plated in the top chamber with Matrigel-coated membrane. The cells on the apical side of each insert were then scraped off after 22 h for both assays. The wells were washed with PBS, fixed with 100% methanol and stained with DAPI. Cells that had migrated to the basal side of the membrane were visualized and counted with a Nikon Eclipse TE2000-U microscope at 10×. Pictures of three random fields were obtained and the number of cells that had migrated quantified using ImageJ analysis software.

[8] = system: MDA-MB231 cells; assay: Microarray gene set enrichment analysis; assay type: cell-based, Human; details: 1 at 5 μM, 2 at 10 μM, in words
Protocol: 10^5 cells/well were incubated with compounds for 14 days. Cells were lysed immediately in TRIzol® Reagent, frozen in liquid nitrogen, and shipped to Asuragen, Inc. (Austin, TX) for microarray experiments. RNA was isolated, amplified, and hybridized to Illumina Human HT-12 v4 arrays according to the manufacturer's protocol. Microarray data were log2 transformed and then normalized to have the same median for all the arrays. Moderate t-statistics were used to test if genes were differentially expressed between the groups of interest. Benjamini and Hochberg method was used to correct for multiple comparisons. R and Bioconductor packages were used for all the statistical analyses (http://cran.us.r-project.org/, http://www.bioconductor.org/). Gene set enrichment analysis was performed using GSEA software from Broad Institute (Boston, MA).

[9] = in vivo; cited from earlier work
[10] = system: MDA-MB231; assay: Cell proliferation, MTT assay; assay type: cell-based; details: Homo sapiens
[11] = system: BT549; assay: Cell proliferation, MTT assay; assay type: cell-based; details: Homo sapiens
[12] = system: MCF-7; assay: Cell proliferation, MTT assay; assay type: cell-based; details: Homo sapiens
[13] = system: MDA-MB231, BT549 and MCF-7 breast cancer cells; assay: Cell proliferation, MTT assay, DOT1L+ breast cancer cells; assay type: cell-based, Human; details: Homo sapiens
[14] = system: H3K79 methylation; assay: Western blot of histone methylation in MDA-MB231; assay type: cell-based, Human; details: for effect on H3K79 methylation: in words
Protocol: (§3) Human cell lines BT549, MDA-MB231, MCF-7, MDA-MB157, HCC70, A549 and NB4 were obtained from the American Type Culture Collection (ATCC) and cultured using ATCC recommended conditions. Primary antibodies against H3K79me2, H3K27me3, H3K4me3, H3K36me2, H4K20me3, H3K9me-pan were purchased from Cell Signaling (Danvers, MA). siRNA experiments were performed by transfecting MDA-MB-231 cells with X-tremeGENE Transfection Reagent (Roche) and 10 nM siRNA (Invitrogen), according to the manufacturer's protocol.
(§4) 10^6 cells/well were incubated with increasing concentrations of a compound for 5 days and histones extracted with the EpiQuik™ Total Histone Extraction Kit (Epigentek) according to the manufacturer's protocol. Equal amounts of histones (2μg) were separated on SDS-PAGE and transferred to PVDF membranes. The blots were probed with primary antibodies, followed by anti-rabbit IgG (Thermo Scientific) secondary antibodies. For western blot analysis of MDA-MB231 xenograft tumors, tumors were harvested and frozen in liquid nitrogen. Histones were extracted and analyzed by immunoblotting as described above.

[15] = system: H3K27 methylation; assay: Western blot of histone methylation in MDA-MB231; assay type: cell-based; details: Homo sapiens, MDA-MB-231, Fig. 4b, read-out: IC50 against H3K27 methylation
Protocol: as §4

[16] = system: methylation at H3K4, H3K9, H3K27, H3K36 and H4K20; assay: Western blot of methylation at other histone lysines in MDA-MB231; assay type: cell-based, Human; details: at concentrations of <1 μM, in words
Protocol: as §4

[17] = system: H3K27 methylation; assay: Western blot of histone methylation in BT549; assay type: cell-based, Human
Protocol: as §4

[18] = biological target: EZH2; details: read-out: Ki against EZH2; cited from earlier work
[19] = biological target: other lysine methyltransferases; details: read-out: Ki against other lysine methyltransferases; cited from earlier work
[20] = system: MDA-MB231; assay: Cell proliferation after DOT1L siRNA; assay type: cell-based, Human; details: MDA-MB231, siRNA treatment, in words
Protocol: as §3, with “protocol. The sequences for DOT1L siRNA (Invitrogen) were: • siRNA-1: 634-[…]; • siRNA-2: 117-[…]; • siRNA-3: 104-[…]; • siRNA-4: 470-[…]; • siRNA-5: 120-[…]. • siRNA-`mock represents an siRNA that has no homology to any vertebrate transcriptome.” for “protocol.”

CC(C)N(CCCNC(=O)Nc1ccc(C(C)(C)C)cc1)CC1OC(n2cnc3c(N)ncnc32)C(O)C1O (centres unmarked) [Compound 2, SYC-522]
activity against A549 cells [1]: negligible activity | apoptosis ([2]; MDA-MB231, 2 μM, in words): negligible amount of apoptosis | apoptotic rate ([2]; MDA-MB231, 10 μM): 7.8% and ~ 8% | sub-G1 phase cell population [3]: increased sub-G1 phase cell population; also recorded: moderately increased pre-G phase cell population | CD44+/CD24− cell population [4]: significantly decreased | cell population expressing high levels of CD24 [4]: considerably more cells expressed higher levels of CD24; also recorded: increased cell population | ALDH+ cell population [5]: considerably reduced | gene expression of E-cadherin [6]: increase | gene expression of TGF-β, Snail and Zeb [6]: significantly reduce | cell migration and invasion [7]: reduced abilities of cell migration and invasion | genes whose expression is low in breast CSCs (GSEA) [8]: upregulation | pro-proliferation genes in the PAM50 gene set (GSEA) [8]: downregulation | pharmacokinetics [9]: poor pharmacokinetics with short plasma half-lives

Nc1nccc2c1ncn2C1C=C(CO)C(O)C1O (centres unmarked) [Compound 4, 3-deazaneplanocin A]
EC50 ([10]; MDA-MB-231, 72 h, read-out: Anti-proliferative activity EC50): > 20 µM | EC50 ([10]; MDA-MB-231, 360 h, read-out: EC50, 15-day treatment): 0.035 µM | EC50 ([11]; BT-549, 72 h, read-out: Anti-proliferative activity EC50): > 20 µM | EC50 ([11]; BT-549, 360 h, read-out: EC50, 15-day treatment): 0.065 µM | EC50 ([12]; MCF7, 72 h, read-out: Anti-proliferative activity EC50): > 20 µM | EC50 ([12]; MCF7, 360 h, read-out: EC50, 15-day treatment): 0.48 µM | EC50 ([13]; 72 h, read-out: EC50, 3-day treatment): > 20 µM | EC50 ([13]; 360 h, read-out: anti-proliferation EC50): 0.035 to 0.48 µM | IC50 ([14]; Homo sapiens, MDA-MB-231, read-out: IC50 of H3K79 methylation inhibition): ~0.05 µM | IC50 [15]: > 6 µM | inhibitory activity against methylation at H3K4, H3K9, H3K27, H3K36 and H4K20 [16]: no or negligible inhibitory activities; also recorded: negligible effects

Cc1cc(C)c(CNC(=O)c2cc(-c3ccc(CN4CCOCC4)cc3)cc3c2cnn3C2CCCC2)c(=O)[nH]1 [Compound 5, EPZ005687]
EC50 ([10]; MDA-MB-231, 72 h, MDA-MB231, 3-day treatment, read-out: Anti-proliferative activity EC50): 11 µM | EC50 ([10]; MDA-MB-231, 360 h, MDA-MB231, 15-day treatment, read-out: Anti-proliferative activity EC50): 13 µM | EC50 ([11]; BT-549, 72 h, BT549, 3-day treatment, read-out: Anti-proliferative activity EC50): 34 µM | EC50 ([11]; BT-549, 360 h, BT549, 15-day treatment, read-out: Anti-proliferative activity EC50): 35 µM | EC50 ([12]; MCF7, 72 h, MCF-7, 3-day treatment, read-out: Anti-proliferative activity EC50): 28 µM | EC50 ([12]; MCF7, 360 h, MCF-7, 15-day treatment, read-out: Anti-proliferative activity EC50): 12 µM | EC50 ([13]; three breast cancer cells, regardless of the treatment durations, read-out: anti-proliferation EC50): 11 to 35 µM | selectivity of histone methylation inhibition ([17]; BT549, Western blot, in words): only inhibited H3K27 methylation | IC50 ([17]; Homo sapiens, BT-549, 5 days, breast cancer cells, Fig. 4d (BT549), read-out: IC50 of H3K27 methylation inhibition): ~0.05 µM | Ki [18]: 0.024 µM

Nc1ncnc2c1ncn2[C@@H]1O[C@H](CSCC[C@H](N)C(=O)O)[C@@H](O)[C@H]1O [SAH, S-adenosyl-homocycteine]
Ki [18]: 7.5 µM | Ki [19]: > 1 µM

siRNA-1: DOT1L siRNA (Invitrogen): 634-CGCGAGUUCAGGAAGUGGAUGAAAU (other strand not given here)
effect on H3K79 methylation [14]: significantly reduced H3K79 methylation | effect on cell proliferation [20]: slowed down cell proliferation; also recorded: significantly inhibited cell proliferation

siRNA-2: DOT1L siRNA (Invitrogen): 117-CGAUAAACAUCACGAUGCUGCUCAU (other strand not given here)
effect on H3K79 methylation [14]: considerably weaker inhibition | effect on cell proliferation [20]: did not significantly affect the growth

siRNA-3: DOT1L siRNA (Invitrogen): 104-CGCUGCCGGUCUACGAUAAACAUCA (other strand not given here)
effect on H3K79 methylation [14]: considerably weaker inhibition | effect on cell proliferation [20]: did not significantly affect the growth

siRNA-4: DOT1L siRNA (Invitrogen): 470-CCCAGAUGAUUGAUGAGAUCAAGAU (other strand not given here)
effect on H3K79 methylation [14]: significantly reduced H3K79 methylation | effect on cell proliferation [20]: inhibited cell proliferation
